Data as given in the supplement of paper PMC10307832.

Legend:
Experiment in all cases: relative viability (nuclei count vs DMSO), 5 days (fraction); higher = more cells survive
[1] = compound: NCC(=O)Nc1ccc(-n2nc(C(F)(F)F)cc2-c2ccc3c(ccc4ccccc43)c2)cc1 + Cc1nc(NC(=O)N2CCC[C@H]2C(N)=O)sc1-c1ccnc(C(C)(C)C(F)(F)F)c1 [Alpelisib] (partner 2 µM)
In short: (§1)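 Lung cancer cell lines were seeded in 1536-well plates and dosed by pin tool the next day, with either a single drug or a fixed anchor-drug dose combined with five library-drug doses (not always all listed) spaced in √10 steps. Five days later, one step fixed the cells and stained their nuclei (final 0.05% Triton X-100, 1% formaldehyde, 1 ug/ml Hoechst), and nuclei were counted on 4× images. Relative viability is the nuclei count in treated wells divided by the count in vehicle wells, and each value is the median of duplicate plates.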

[2] = compound: C1CSC2=C(C(=O)N1)SC3=C2C=C(C=C3)O [kb NB 142-70] + N=C(N)NC(=N)NCCc1ccccc1 [Phenformin] (partner 250 µM)
In short: as §1

kb NB 142-70 + Lapatinib = compound: C1CSC2=C(C(=O)N1)SC3=C2C=C(C=C3)O [kb NB 142-70] + CS(=O)(=O)CCNCc1ccc(-c2ccc3ncnc(Nc4ccc(OCc5cccc(F)c5)c(Cl)c4)c3c2)o1 [Lapatinib] (partner 2 µM)
In short: as §1

kb NB 142-70 + OSI-027 = compound: C1CSC2=C(C(=O)N1)SC3=C2C=C(C=C3)O [kb NB 142-70] + COc1cccc2cc(-c3nc([C@H]4CC[C@H](C(=O)O)CC4)n4ncnc(N)c34)[nH]c12 [OSI-027] (partner 0.5 µM)
In short: as §1

[3] = compound: NCC(=O)Nc1ccc(-n2nc(C(F)(F)F)cc2-c2ccc3c(ccc4ccccc43)c2)cc1 + CCNC(=O)c1noc(-c2cc(C(C)C)c(O)cc2O)c1-c1ccc(CN2CCOCC2)cc1 [Luminespib] (partner 0.01 µM)
In short: as §1

Cell Line	relative viability ([1]; first compound 0.02 µM)	relative viability ([1]; first compound 0.06325 µM)	relative viability ([1]; first compound 0.2 µM)	relative viability ([1]; first compound 0.6325 µM)	relative viability ([1]; first compound 2 µM)	relative viability ([2]; first compound 0.1 µM)	relative viability ([2]; first compound 1 µM)	relative viability ([2]; first compound 3.162 µM)	relative viability (kb NB 142-70 + Lapatinib; first compound 0.1 µM)	relative viability (kb NB 142-70 + Lapatinib; first compound 1 µM)	relative viability (kb NB 142-70 + Lapatinib; first compound 3.162 µM)	relative viability (kb NB 142-70 + OSI-027; first compound 0.1 µM)	relative viability (kb NB 142-70 + OSI-027; first compound 1 µM)	relative viability (kb NB 142-70 + OSI-027; first compound 3.162 µM)	relative viability ([3]; first compound 0.02 µM)	relative viability ([3]; first compound 0.06325 µM)	relative viability ([3]; first compound 0.2 µM)	relative viability ([3]; first compound 0.6325 µM)	relative viability ([3]; first compound 2 µM)
NCI-H2126	0.784	0.774	0.724	0.765	0.788	0.525	0.507	0.551	0.818	0.739	0.783	0.791	0.629	0.674	0.904	0.981	0.871	0.942	0.943
HOP-62	1.09	0.995	0.922	0.975	0.859	0.666	0.663	0.534	1.07	0.97	0.974	0.868	0.751	0.699	0.887	0.911	0.862	0.9	0.951
CAL-12T	1.2	1.27	1.34	1.03	1.03	0.565	0.601	0.485	0.673	0.673	0.496	0.857	0.719	0.444	0.54	0.22	0.531	0.536	0.463
NCI-H520	0.979	0.982	1.04	0.92	0.896	0.57	0.515	0.324	0.826	0.848	0.464	0.262	0.226	0.25	0.193	0.179	0.198	0.239	0.229
NCI-H1755	0.913	0.93	0.917	0.884	0.955	0.586	0.587	0.638	1.02	1.04	1.02	0.741	0.722	0.737	0.449	0.621	0.305	0.426	0.541
NCI-H2023	0.606	0.625	0.609	0.577	0.596	0.382	0.44	0.391	0.809	0.758	0.486	0.485	0.417	0.258	0.681	0.906	0.972	0.739	0.758
NCI-H2009	1.21	1.11	1.19	1.1	1.16	0.477	0.547	0.429	0.952	1.03	0.678	0.678	0.68	0.395	1.1	0.932	1.09	1.03	1.03
